Assay results reported in ChEMBL document CHEMBL1201862, “PubChem BioAssay data set” (2004).
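The compound was tested at five concentrations on cells cultured in 96-well plates, with a 48-hour exposure period. Abbreviation: GI50, concentration required for 50% inhibition of growth.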 Calls of active or inactive are those of the source. Rule as the data show it: active = GI50 up to about 1.1 µM and inactive = higher.

How the values were obtained:
Assay in all cases: inhibition of tumour cell growth, NCI panel, 48 h
HOP-18 = test system: HOP-18
DMS-114 = test system: DMS-114
DLD-1 = test system: DLD-1
M19-MEL = test system: M19-MEL
LXFL 529 = test system: LXFL 529
DMS-273 = test system: DMS-273
SNB-78 = test system: SNB-78
XF498 = test system: XF498
RXF 631 = test system: RXF 631

Compound | GI50 (HOP-18) | GI50 (DMS-114) | GI50 (DLD-1) | GI50 (M19-MEL) | GI50 (LXFL 529) | GI50 (DMS-273) | GI50 (SNB-78) | GI50 (XF498) | GI50 (RXF 631)
O=C(CSc1nnc(Cc2ccccc2)o1)Nc1ccccc1 | > 100 µM (inactive) | > 100 µM (inactive) | > 100 µM (inactive) | > 100 µM (inactive) | > 100 µM (inactive) | > 100 µM (inactive) | > 100 µM (inactive) |  | 
O=C1Cc2ccccc2CCc2ccccc21 | > 100 µM (inactive) | 47 µM (inactive) | > 100 µM (inactive) | > 100 µM (inactive) | > 100 µM (inactive) | > 100 µM (inactive) | > 100 µM (inactive) |  | 
CC1=NN(c2ccccc2)C(=O)/C1=C\c1ccc([N+](=O)[O-])cc1 | < 0.01 µM (active) | 20.8 µM (inactive) | 36 µM (inactive) |  | 32.1 µM (inactive) | 25 µM (inactive) | 28.4 µM (inactive) | 16.6 µM (inactive) | 29.5 µM (inactive)
C=C1CCC2(C(C)=O)COC1(C)O2 (configuration not stated) | > 100 µM (inactive) | > 100 µM (inactive) | > 100 µM (inactive) | > 100 µM (inactive) |  | > 100 µM (inactive) |  | 62.2 µM (inactive) | 
O=[N+]([O-])c1ccc(-c2ccc(C3=Nn4c(nnc4-c4ccc(Cl)cc4)SC3)o2)cc1 | > 100 µM (inactive) | > 100 µM (inactive) | > 91.4 µM (inactive) | > 100 µM (inactive) | > 100 µM (inactive) | 67.9 µM (inactive) |  | 24.9 µM (inactive) | > 53.3 µM (inactive)
O=C1c2ccccc2C(=O)C12CCc1ccccc12 | > 100 µM (inactive) | > 100 µM (inactive) | > 100 µM (inactive) | > 100 µM (inactive) | > 100 µM (inactive) | > 100 µM (inactive) | > 100 µM (inactive) | > 100 µM (inactive) | > 100 µM (inactive)
NC(=O)CCC(NC(=O)Cc1ccccc1)C(=O)O (configuration not stated) |  | > 2470 µM (inactive) | > 2470 µM (inactive) | > 2470 µM (inactive) | > 2470 µM (inactive) | > 2470 µM (inactive) |  |  | 
C/C(CCc1ccccc1)=N\NC(N)=S | > 100 µM (inactive) | 39 µM (inactive) | > 100 µM (inactive) | 74.8 µM (inactive) | 43 µM (inactive) | > 100 µM (inactive) | > 100 µM (inactive) | 43.4 µM (inactive) | > 100 µM (inactive)
CCOC(=O)C1=C(O)C(=O)c2c(OC)ccc(OC)c2C1=O | 32.5 µM (inactive) | > 100 µM (inactive) | > 100 µM (inactive) | > 100 µM (inactive) |  | > 100 µM (inactive) | > 100 µM (inactive) | > 100 µM (inactive) | 
Cn1cc(NC(=O)c2cc(NC(=O)CCCCCCCCCC(=O)Nc3cc(C(=O)Nc4cc(C(=O)NCCC(=N)N)n(C)c4)n(C)c3)cn2C)cc1C(=O)NCCC(=N)N | 35.3 µM (inactive) | 84.9 µM (inactive) | 34.2 µM (inactive) | 34.1 µM (inactive) | 24.5 µM (inactive) | 33.2 µM (inactive) | 37.2 µM (inactive) | 32.9 µM (inactive) | 
CC1=C(NC(=O)/C(=N/NC(=S)NN)C2C(=O)CC(C)(C)CC2=O)C(=O)c2ccccc2C1=O | 15.7 µM (inactive) | 2.12 µM (inactive) | 4.48 µM (inactive) | 1.33 µM (inactive) | 11.4 µM (inactive) | 6.21 µM (inactive) | 15.2 µM (inactive) | 14.9 µM (inactive) | 7.8 µM (inactive)
COc1c(CC(C)=O)c2ccccc2n1C(C)=O | > 100 µM (inactive) |  | > 100 µM (inactive) | > 100 µM (inactive) | > 100 µM (inactive) | > 100 µM (inactive) | > 100 µM (inactive) | > 100 µM (inactive) | > 100 µM (inactive)
COC1C2c3ccccc3C(C#N)(Cc3ccc4c(c32)OCO4)N1C(=O)c1ccccc1 (configuration not stated) | 80.7 µM (inactive) | 19.6 µM (inactive) | 60.3 µM (inactive) |  | 46 µM (inactive) | 5.65 µM (inactive) | 47.8 µM (inactive) | 21.3 µM (inactive) | > 100 µM (inactive)
C/C(CC(=O)Nc1cccc(Cl)c1C)=N\NC(N)=S |  |  | > 100 µM (inactive) | > 100 µM (inactive) | > 100 µM (inactive) |  | > 100 µM (inactive) | > 100 µM (inactive) | > 100 µM (inactive)
C#CCSc1nc(N)c2ncn(C3OC(CO)C(O)C3O)c2n1 (configuration not stated) |  | > 100 µM (inactive) | > 100 µM (inactive) | > 100 µM (inactive) | > 100 µM (inactive) | > 100 µM (inactive) | > 100 µM (inactive) | > 100 µM (inactive) | 
CN(CCO)c1nc(N)cc(=O)[nH]1 | > 100 µM (inactive) | > 100 µM (inactive) | > 100 µM (inactive) | > 100 µM (inactive) | > 100 µM (inactive) | > 100 µM (inactive) | > 100 µM (inactive) | > 100 µM (inactive) | 
NNC(=O)CCC(=O)Nc1cc(Cl)c(Cl)cc1Cl |  | > 100 µM (inactive) | > 100 µM (inactive) | > 100 µM (inactive) | > 100 µM (inactive) | > 100 µM (inactive) | > 100 µM (inactive) | > 100 µM (inactive) | > 100 µM (inactive)
Cc1ccc(NC(=O)CC2C(=O)Nc3ccccc3S2(=O)=O)c(C)c1 (configuration not stated) |  | 15 µM (inactive) | 14.6 µM (inactive) |  | 16.7 µM (inactive) | 10.7 µM (inactive) | 18.1 µM (inactive) | 14.8 µM (inactive) | 
CC1C[C@H](OC(N)=O)C(C)CC1=O (some centres not stated) | > 100 µM (inactive) | > 100 µM (inactive) | > 100 µM (inactive) | > 100 µM (inactive) | > 100 µM (inactive) | > 100 µM (inactive) | > 100 µM (inactive) | > 100 µM (inactive) | 
O=C1C(c2ccc(Cl)cc2)=[N+]([O-])c2ccccc21 | 21.8 µM (inactive) | 4.07 µM (inactive) | 13.8 µM (inactive) | > 100 µM (inactive) | 5.36 µM (inactive) |  |  | 20.4 µM (inactive) | 23.6 µM (inactive)
C[C@@H]1C[C@@H](O)[C@]2(O)O[C@@H]3C[C@@]4(C=O)[C@@H](CC[C@@H]5[C@@H]4CC[C@]4(C)[C@@H](C6=CC(=O)OC6)CC[C@]54O)C[C@H]3O[C@@H]2O1 [CALACTIN] | 0.0042 µM (active) | 0.00141 µM (active) | 0.012 µM (active) | 0.0206 µM (active) | 0.00501 µM (active) | 0.00455 µM (active) | 0.0106 µM (active) | 0.0159 µM (active) | 
